Where two headings read alike, the source gives them in different places.
Key:
[1] = test system: Daudi cell line (AID positive); assay: Primary screening cell killing assay (Cell-Titer Glo, Day 7); format: cell-based; conditions: Homo sapiens, 168 h; Daudi cells (AID positive), cell death on Day 7; read-out: AID+ EC50
Description: (§1) Primary screening was a phenotypic screen that utilized the synthetic lethal interaction between AID and RAD51 to identify compounds that were both potent and on target. AID expressing cells are dependent upon RAD51 for survival; inhibiting RAD51 in AID positive cells results in a cytotoxic effect.
The first step was to set up a cell killing assay in the Daudi cell line (AID positive). A 96 well u-bottom plate was prepared by writing the experiment number, plate number, date and initials in the top right corner of the plate lid. With a sterile 300 ml reservoir, and 25 ml serological pipette, evaporation buffer media was pipetted into reservoir in 25 ml increments. Using the liquid handler, 150 ul of evaporation buffer media was pipetted from reservoir into rows A and H, and Columns 1 and 12 of the 96 well u-bottom plate. Cell cultures were counted to obtain the density of cells per ml, and the culture viability. The cell density information was used to obtain 1,000,000 cells from culture using a 5 mL serological pipette into an epi tube. The cell density information from the culture was used to calculate the number of cells and volume of media needed for the assay to seed 1250 cells in 130 ul of media per available culture well in the 96 well u-bottom plate. Rows B through F were used for cells (50 wells in total), with row G left for an empty media control. The calculation was overestimated by 10 mL to account for the dead volume in the 300 ml reservoir. Once the media volume was calculated, the appropriate volume of media was pipetted in 25 mL increments into the 250 mL bottle using a 25 mL serological pipette. The 250 ml bottle was capped tightly, and placed into a 37° C. water bath for 2 minutes. While the culture media was warming, 10 mL of fresh media was pipetted from the 500 mL culture media bottle into a sterile 25 mL reservoir. Using the Eppendorf multichannel pipette, 130 ul of media was piptted from the 25 mL reservoir into row G of the 96 well u-bottom plate. Once the 250 mL bottle of media was warmed, the volume of culture needed was pipetted into the bottle, and mixed gently with a 25 mL serological pipette as to not create bubbles, and then the contents of the bottle were pipetted into a new 300 mL reservoir. Using the liquid handler, 130 ul of culture was pipetted from the 300 mL reservoir into rows B through F of the 96 well u-bottom plate. Once the culture was added, the plate was placed into a 37° C. incubator until the compound master plate was prepared for use.
Two 96 well u-bottom plates were prepared by writing the master plate name in the upper right corner of the plate lid. Labeling one DMSO master and the other Media Master. The compounds of interest were obtained from the laboratory freezer, and placed into a 25 well storage box with a lid, and set the box aside. The compounds were vortexed after thawing but before use. Using an automatic multichannel pipette, 20 ul of 100% DMSO was pipetted into wells B3-B11 through G3-G11 of the DMSO master plate. For each compound on the master plate, 50 ul of the compound were pipetted in the appropriate well of row 2 (reference plate map to determine appropriate well). A serial dilution was prepared beginning by aspirating 20 ul from row 2 and mixing with row 3, repeating until row 11 was reached. Using the liquid handler, 194 ul of Daudi media was dispensed into wells B2-B11 through G2-G11 of the Media master plate. Using the liquid handler, 6 ul from the DMSO master plate was aspirated and dispensed into the media master plate, mixing 100 ul twice.
Compounds from master plate were then added to the culture plate. The culture plates were removed from the incubator, and set inside the biosafety cabinet. Using a liquid handler, 20 ul from wells B2 to B11 through G2 to G11 of master plate were aspirated, and dispensed into wells B2 to B11 through G2 to G11 of culture plate. This set was continued with each culture plate. […]

[2] = test system: WI-38 cells (AID negative); assay: Primary screening cell killing assay repeated in AID negative cells; format: cell-based, Human; conditions: WI-38 cells (AID negative); read-out: AID− EC50
Description: as §1
Percent cell death and EC50 values were calculated by comparing the cell viability of the compound treated wells to the non-treated wells. Normalized RLU values were obtained by subtracting the media well values from each of the wells in the same column, and then dividing that value by the DMSO treated cells values. The percent kill was then calculated by subtracting the normalized RLU value from 1 and multiplying by 100. The average normalized percent kill value and standard error of the mean was then calculated. The kill values were then inputted into Prism with the corresponding standard errors. In Prism a non-linear regression line was plotted with the data points using a semi-log scale, and the EC50 value was calculated.
The activity of the claimed compounds was measured in a variety of cell lines with different expression levels of activation induced cytidine deaminase (AICDA). The potency assay was repeated in all of the listed cell lines and the EC50 values recorded.

[3] = Bi-directional Caco-2 permeability; format: in vitro ADME; conditions: human; for Papp A→B / Papp B→A: Caco-2, 37 C, up to 90 minutes; for Papp A→B: apical to basolateral, read-out: AB Papp (cm/sec × 10^6); for Papp B→A: basolateral to apical, read-out: BA Papp (cm/sec × 10^6); for efflux ratio: Caco-2 efflux ratio, read-out: BA/AB Ratio
Description: Bi-directional Caco-2 permeability was assayed. Caco-2 cells were seeded onto permeable polycarbonate supports and allowed to differentiate for about 3 weeks prior to being used in the assays. The cells were then exposed to the compounds from either the apical or basolateral sides and incubated at 37 C for up to 90 minutes under light agitation. Compound transport was then measured using LC/MS/MS analysis at 30, 60, and 90 minutes.

[4] = Caco-2, apical to basolateral, read-out: AB Recovery %
[5] = Caco-2, basolateral to apical, read-out: BA Recovery %

| Compound | EC50 [1] | recovery at 90 min [3, 4] | recovery at 90 min [3, 5] | further results |
| --- | --- | --- | --- | --- |
| CC(C)OC(=O)Nc1ccc(-c2sc(C3CCC(NC(=O)OC(C)C)CC3)nc2F)c(S(=O)(=O)NC(C)(C)C)c1 (centres unmarked) [Compound 58] | ≤ 1 µM |  |  |  |
| CC(C)OC(=O)NC1CCC(c2ncc(-c3ccc(NC(=O)OC[C@H]4CCCN4)cc3S(=O)(=O)NC(C)(C)C)s2)CC1 (some centres unmarked) [Compound 36] | ≤ 1 µM |  |  |  |
| CC(C)OC(=O)Nc1ccc(-c2cnc(C3CC(NC(=O)OC(C)C)C3)s2)c(S(=O)(=O)NC(C)(C)C)c1 (centres unmarked) [Compound 65] | ≤ 1 µM |  |  |  |
| CC(C)OC(=O)NC1CCC(c2ncc(-c3ccc(NC(=O)O[C@@H](C)c4ccccc4)cc3S(=O)(=O)NC(C)(C)C)s2)CC1 (some centres unmarked) [Compound 41] |  |  |  | EC50 [2]: > 1 µM |
| CN1CCC[C@H]1COC(=O)N[C@H]1CC[C@H](c2ncc(-c3ccc(NC(=O)NCc4ccccc4)cc3S(=O)(=O)NC(C)(C)C)s2)CC1 [Compound 12] | ≤ 1 µM |  |  |  |
| CC(C)OC(=O)NC1CCC(c2ncc(-c3ccc(NC(=O)OCC4CCNCC4)cc3S(=O)(=O)NC(C)(C)C)s2)CC1 (centres unmarked) [Compound 33] | > 1 µM |  |  |  |
| CC(C)OC(=O)Nc1ccc(-c2cnc(C34CCC(NC(=O)OC(C)C)(CC3)CC4)s2)c(S(=O)(=O)NC(C)(C)C)c1 [Compound 17] | ≤ 1 µM |  |  |  |
| COc1cc(NC(=O)OC(C)C)cnc1-c1ncc(-c2ccc(NC(=O)OCC3CCNCC3)cc2S(=O)(=O)NC(C)(C)C)s1 [Compound 56] | ≤ 1 µM |  |  |  |
| CC(C)OC(=O)NC1CCC(c2ncc(-c3ccc(NC(=O)OC[C@@H]4CCCN4)cc3S(=O)(=O)NC(C)(C)C)s2)CC1 (some centres unmarked) [Compound 37] | ≤ 1 µM |  |  |  |
| C=S(=O)(NC(C)(C)C)c1cc(NC(=O)NCc2ccccc2)ccc1-c1cnc(N2CCC(NC(=O)OC(C)C)CC2)s1 (centres unmarked) [Compound 68] | ≤ 1 µM |  |  |  |
| CC(C)OC(=O)NC1CCC(c2ncc(-c3ccc(NC(=O)NCc4ccccc4F)cc3S(=O)(=O)NC(C)(C)C)s2)CC1 (centres unmarked) [Compound 28] | ≤ 0.1 µM | 66.9% | 81% |  |
| CC(C)OC(=O)Nc1ccc(-c2cnc(C3CCC(NC(=O)OC4COC4)CC3)s2)c(S(=O)(=O)NC(C)(C)C)c1 (centres unmarked) [Compound 48] | ≤ 1 µM |  |  |  |
| CC(C)OC(=O)Nc1ccc(-c2cnc(C3CC[C@@H](NC(=O)OC(C)C)CO3)s2)c(S(=O)(=O)NC(C)(C)C)c1 (mixture of isomers) [Compound 60] | ≤ 1 µM |  |  |  |
| CC(C)NC(=O)OC1CCC(c2ncc(-c3ccc(NC(=O)NCc4ccccc4)cc3S(=O)(=O)NC(C)(C)C)s2)CC1 (centres unmarked) [Compound 21] | ≤ 0.1 µM | 58.6% | 78.3% |  |
| CC(C)OC(=O)NC1CCC(c2ncc(-c3ccc(NC(=O)OC[C@H]4CCCN4C)cc3S(=O)(=O)NC(C)(C)C)s2)CC1 (some centres unmarked) [Compound 34] | ≤ 1 µM | 98.2% | 96.8% |  |
| CC(C)OC(=O)N[C@H]1CC[C@@H](c2ncc(-c3ccc(NC(=O)NCc4ccccc4)cc3S(=O)(=O)NC(C)(C)C)s2)CC1 [Compound 66B] | ≤ 1 µM |  |  |  |
| CC(C)OC(=O)N[C@@H]1CC[C@@H](c2ncc(-c3ccc(NC(=O)NCc4ccccc4)cc3S(=O)(=O)NC(C)(C)C)s2)OC1 [Compound 59A] | ≤ 1 µM |  |  |  |
| CN1CCC[C@@H]1COC(=O)NC1CCC(c2ncc(-c3ccc(NC(=O)NCc4ccccc4)cc3S(=O)(=O)NC(C)(C)C)s2)CC1 (some centres unmarked) [Compound 11] | ≤ 1 µM |  |  |  |
| CC(C)OC(=O)Nc1ccc(-c2cnc([C@@H]3CC[C@@H](NC(=O)OC(C)C)CN3)s2)c(S(=O)(=O)NC(C)(C)C)c1 (relative stereo) [Compound 63] | ≤ 1 µM |  |  |  |
| CC(C)OC(=O)Nc1ccc(-c2cnc(C3CCC(NC(=O)OC[C@@H]4CCCN4C)CC3)s2)c(S(=O)(=O)NC(C)(C)C)c1 (some centres unmarked) [Compound 9] | ≤ 1 µM |  |  |  |
| CC(C)OC(=O)Nc1ccc(-c2cnc([C@H]3CC[C@H](NC(=O)OC(C)C)CO3)s2)c(S(=O)(=O)NC(C)(C)C)c1 [Compound 60B] | ≤ 1 µM |  |  |  |
| CC(C)OC(=O)NC1CCC(c2ncc(-c3ccc(NC(=O)NCc4ccncc4)cc3S(=O)(=O)NC(C)(C)C)s2)CC1 (centres unmarked) [Compound 22] | ≤ 1 µM | 83.1% | 89% | Papp A→B [3]: 1.1 ×10⁻⁶ cm/s; Papp B→A [3]: 21 ×10⁻⁶ cm/s; efflux ratio [3]: 18.7 |
| CC(C)(C)NS(=O)(=O)c1cc(NC(=O)NCc2ccccn2)ccc1-c1cnc(C2CCC(NC(=O)OC(C)(C)C)CC2)s1 (centres unmarked) [Compound 45] | ≤ 0.1 µM | 73.6% | 84.4% | Papp A→B [3]: 7.6 ×10⁻⁶ cm/s; Papp B→A [3]: 10.8 ×10⁻⁶ cm/s; efflux ratio [3]: 1.4 |
| CC(C)OC(=O)NC1CCC(c2ncc(-c3ccc(NC(=O)OC[C@@H]4CCCN4C)cc3S(=O)(=O)NC(C)(C)C)s2)CC1 (some centres unmarked) [Compound 35] | ≤ 1 µM | 98.8% | 108% |  |
| CC(C)NC(=O)OC1CCC(c2ncc(-c3ccc(NC(=O)OC(C)C)cc3S(=O)(=O)NC(C)(C)C)s2)CC1 (centres unmarked) [Compound 20] | > 1 µM | 44.8% | 96.6% | Papp A→B [3]: 9.4 ×10⁻⁶ cm/s; Papp B→A [3]: 10.4 ×10⁻⁶ cm/s; efflux ratio [3]: 1.1 |
| CC(C)OC(=O)NC1CCC(c2ncc(-c3ccc(NC(=O)NCc4cccnc4)cc3S(=O)(=O)NC(C)(C)C)s2)CC1 (centres unmarked) [Compound 25] | ≤ 0.1 µM |  |  |  |
| CC(C)OC(=O)Nc1ccc(-c2cnc(C3CCC(NC(=O)OC4CCCC4)CC3)s2)c(S(=O)(=O)NC(C)(C)C)c1 (centres unmarked) [Compound 7] | ≤ 1 µM | 55.9% | 92% | Papp A→B [3]: 1.7 ×10⁻⁶ cm/s; Papp B→A [3]: 2.1 ×10⁻⁶ cm/s; efflux ratio [3]: 1.2 |
| CC(C)OC(=O)NC1CCC(c2ncc(-c3ccc(NC(=O)NCc4ccc(F)cc4)cc3S(=O)(=O)NC(C)(C)C)s2)CC1 (centres unmarked) [Compound 23] | ≤ 0.1 µM |  |  |  |
| CC(C)OC(=O)Nc1ccc(-c2cnc(C3CCC(NC(=O)OC(C)(C)C)CC3)s2)c(S(=O)(=O)NC(C)(C)C)c1 (centres unmarked) [Compound 44] | > 1 µM | 36.2% | 69.4% | Papp A→B [3]: 3.2 ×10⁻⁶ cm/s; Papp B→A [3]: 4.2 ×10⁻⁶ cm/s; efflux ratio [3]: 1.3 |
